This experiment deals with HGC27 (Human Gastric Cancer Cell). Kind of experiment: HGC27 cell growth inhibition (CellTiter-Glo). The settings on record: read-out: HGC27 CTG IC50. Type of experiment: cell-based. As to the method:
Biological Activity Detection of HGC27 (Human Gastric Cancer Cell) Cell Growth Inhibition
This detection method is used to evaluate the cellular level biological activity of the compounds of the present disclosure.
Harvest HGC27 cells (purchased from Chinese Academy of Sciences), resuspend in complete culture medium and adjust the cell density to 0.2×10^6 cells per ml. Add 100 μL of cell suspension to each well into a 96-well plate and incubate overnight in a 37° C., 5% CO2 incubator. Prepare the compound to be tested and add it to the cell plate so that the maximum concentration of the compound is 10 μM. Set 8 concentration points according to 3-fold dilution. At the same time, set up a 100% inhibition control well, that is, a well with no cells added and only an equal volume of complete culture medium; and a 0% inhibition control well, that is, a cell well with 0.1% DMSO added. The above cell plate was cultured at 37° C. and 5% CO2 for 24 hours. Take out the cell culture plate, add 25 μl CellTiter-Glo® Luminescent Cell Viability reagent (promega cat #G7573) to each well, incubate in the dark for 10 minutes, transfer 100 μL to a white plate, and use Molecular Devices SpectraMax i3 to detect chemiluminescence. Data processing uses the following formula to calculate the inhibition rate: compound inhibition rate=(0% inhibition of control well signal−compound treatment well signal)/(0% inhibition of control well signal−100% inhibition of control well signal)*100%. The calculated data were fitted using graphpad prism software with four parameters and the corresponding IC50 was calculated.
According to the above detection method, the biological activity of the compound of the present disclosure was evaluated at the cellular level. Wherein, CR8 is a literature compound, which was purchased from Shanghai Bide Pharmaceutical.
(In ATP-based viability assays light output follows the ATP content of the culture.)

The mark [1] stands for this setting: Homo sapiens, HGC-27, 24 h, HGC27 cells, 24 hours, CellTiter-Glo.

The results in this text go back to US20240368147A1, “CYCLIN K DEGRADER” (ADLAI NORTYE BIOPHARMA CO., LTD., priority 2021, published 2024).

Where two headings read alike, the source gives them in different places.

`C[C@@H](Nc1nc(NCc2ccc(-c3ccccn3)cc2)ncc1C(F)(F)F)C(N)=O` [Compound 188]: the IC50 – broadly, the midpoint of a concentration-inhibition curve – under setting [1] was determined as 258 nM.
On to `CC[C@@H](Nc1nc(NCc2ccc(-c3cc(CO)cc(CO)n3)cc2)ncc1C(F)(F)F)[C@@H](C)O` [Compound 198], for which, under setting [1], the IC50 came out at 439 nM.
`CC[C@@H](Nc1nc(NCc2ccc(-c3cc(CO)cc(C)n3)cc2)ncc1C(F)(F)F)C(N)=O` [Compound 161]: the half-inhibitory concentration (IC50) under setting [1] was 193 nM.
With `CC[C@H](CN)Nc1nc(NCc2ccc(-c3ccccn3)cc2)ncc1C(F)(F)F` [Compound 214], the half-inhibitory concentration (IC50) under setting [1] is 292 nM.
On to `Cc1ccnc(-c2ccc(CNc3ncc(C(F)(F)F)c(OC4COC4)n3)cc2)c1` [Compound 40], for which, under setting [1], the IC50 was 341 nM.
Turning to `C[C@@H](O)[C@@H](CO)Nc1nc(NCc2ccc(-c3cc(CO)cc(CO)n3)cn2)ncc1C(F)(F)F` [Compound 177], under setting [1], the concentration for half-maximal inhibition (IC50) worked out at 193 nM.
In the case of `O[C@H]1CNCC1Oc1nc(NCc2ccc(-c3ccccn3)cc2)ncc1C(F)(F)F` (some centres unmarked) [Compound 164], under setting [1], the 50% inhibitory concentration (IC50) was 386 nM.
With `NS(=O)(=O)c1cncc(-c2nc(NCc3ccc(-c4ccccn4)cc3)ncc2C(F)(F)F)c1` [Compound 147], the half-inhibitory concentration (IC50) under setting [1] is 410 nM.
Consider `C=Cc1ccnc(-c2ccc(CNc3ncc(C(F)(F)F)c(OC4COC4)n3)cc2)c1` [Compound 129], for which the 50% inhibitory concentration (IC50) under setting [1] is 77 nM.
Regarding `C[C@H](O)[C@@H](Nc1nc(NCc2ccc(-c3ccccn3)cc2)ncc1C(F)(F)F)C(N)=O` [Compound 212], the IC50 (Homo sapiens, HGC-27, 24 h) stood at 187 nM.
Take `C[C@@H](O)[C@@H](CN1CCCC1)Nc1nc(NCc2ccc(-c3ccccn3)cc2)ncc1C(F)(F)F` [Compound 202]: the IC50 under setting [1] came out at 367 nM.
On the same count and under the same terms, under `O[C@H]1CCCC[C@H]1Nc1nc(NCc2ccc(-c3ccccn3)cc2)ncc1C(F)(F)F` [Compound 156] stands 169 nM; under `O[C@H]1CC[C@H]1Nc1nc(NCc2ccc(-c3ccccn3)cc2)ncc1C(F)(F)F` [Compound 91], 486 nM.
Turning to `C[C@@H](O)[C@@H](C)Oc1nc(NCc2ccc(-c3cc(CO)cc(CO)n3)cn2)ncc1C(F)(F)F` [Compound 182], the IC50 under setting [1] came out at 68 nM.
On to `N#Cc1ccnc(-c2ccc(CNc3ncc(C(F)(F)F)c(OC4COC4)n3)cc2)c1` [Compound 138], for which the IC50 under setting [1] came out at 254 nM.
Consider `CC[C@@H](Nc1nc(NCc2ccc(-c3ccccn3)cc2)ncc1C(F)(F)F)[C@@H](C)O` [Compound 195], for which the half-inhibitory concentration (IC50) under setting [1] was found to be 25 nM.
As for `CC[C@@H](Nc1nc(NCc2ccc(-c3ccccn3)cc2)ncc1C(F)(F)F)C(N)=O` [Compound 134], the concentration for half-maximal inhibition (IC50) under setting [1] is 370 nM.
Take `C[C@@H](Nc1ncc(C(F)(F)F)c(OC2COC2)n1)c1ccc(-c2ccccn2)cc1` [Compound 119]: the IC50 under setting [1] is 479 nM.
For `COC[C@H](CO)Nc1nc(NCc2ccc(-c3ccccn3)cc2)ncc1C(F)(F)F` [Compound 158], the IC50 under setting [1] turned out to be 49 nM.
Consider `CC[C@H](CO)Nc1nc(NCc2ccc(-c3ccccn3)cc2)c2ncn(C(C)C)c2n1` [CR8, reference compound], for which the IC50 under setting [1] is 429 nM.
For `C[C@@H](O)[C@@H](CO)Nc1nc(NCc2ccc(-c3cc(CO)cc(CO)n3)cc2)ncc1C(F)(F)F` [Compound 170], the IC50 under setting [1] was found to be 48 nM.
As for `NC(=O)[C@@H](CO)Nc1nc(NCc2ccc(-c3ccccn3)cc2)ncc1C(F)(F)F` [Compound 127], under setting [1], the IC50 was 446 nM.
`C[C@@H](O)[C@@H](CO)Nc1nc(NCc2ccc(-c3cccc(CO)n3)cc2)ncc1C(F)(F)F` [Compound 171]: under setting [1], the concentration for half-maximal inhibition (IC50) is 25 nM.
For the compound `CNC(=O)[C@@H](C)Nc1nc(NCc2ccc(-c3ccccn3)cc2)ncc1C(F)(F)F` [Compound 193], the IC50 under setting [1] is 39 nM.
As to `OCC(CO)Nc1nc(NCc2ccc(-c3ccccn3)cc2)ncc1C(F)(F)F` [Compound 104], under setting [1], the concentration for half-maximal inhibition (IC50) was found to be 275 nM.
Consider `CCc1ccnc(-c2ccc(CNc3ncc(C(F)(F)F)c(OC4COC4)n3)cc2)c1` [Compound 135], for which the half-maximal inhibitory concentration (IC50) under setting [1] came out at 427 nM.
As for `CC[C@H](O)[C@@H](C)Nc1nc(NCc2ccc(-c3ccccn3)cc2)ncc1C(F)(F)F` [Compound 199], the half-maximal inhibitory concentration (IC50) under setting [1] was found to be 205 nM.
The same measure, in the same setting: for `Cc1cc(CO)cc(-c2ccc(CNc3ncc(C(F)(F)F)c(N[C@H](CO)[C@@H](C)O)n3)cc2)n1` [Compound 160] the value was 48 nM; for `OCc1cc(CO)nc(-c2ccc(CNc3ncc(C(F)(F)F)c(OC4COC4)n3)cc2)c1` [Compound 125], 191 nM.
In the case of `Cc1cc(CO)nc(-c2ccc(CNc3ncc(C(F)(F)F)c(OC4COC4)n3)cc2)c1` [Compound 69], the half-maximal inhibitory concentration (IC50) under setting [1] was determined as 185 nM.
As to `CC[C@H](CO)Nc1nc(NCc2ccc(-c3ccccn3)cc2)ncc1C(F)(F)F` [Compound 25], under setting [1], the IC50 came to 158 nM.
Regarding `N#Cc1cc(CO)nc(-c2ccc(CNc3ncc(C(F)(F)F)c(OC4COC4)n3)cc2)c1` [Compound 179], under setting [1], the IC50 amounted to 108 nM.
With `CN1CCC(Oc2nc(NCc3ccc(-c4ccccn4)cc3)ncc2C(F)(F)F)CC1` [Compound 35], under setting [1], the IC50 is 379 nM.
For the compound `C[C@@H](Nc1nc(NCc2ccc(-c3ccccn3)cc2)ncc1C(F)(F)F)C(=O)N(C)C` [Compound 192], the IC50 under setting [1] was found to be 25 nM.
Turning to `C[C@@H](O)[C@@H](C)Oc1nc(NCc2ccc(-c3cc(CO)cc(CO)n3)cc2)ncc1C(F)(F)F` [Compound 168], under setting [1], the IC50 was 60 nM.
As for `CC(C)[C@@H](Nc1nc(NCc2ccc(-c3ccccn3)cc2)ncc1C(F)(F)F)C(N)=O` [Compound 210], under setting [1], the concentration for half-maximal inhibition (IC50) was 34 nM.
On the same count and under the same terms, under `CS(=O)(=O)c1cccc(-c2nc(NCc3ccc(-c4ccccn4)cc3)ncc2C(F)(F)F)c1` [Compound 146] stands 281 nM.
On to `O[C@@H]1CCC[C@H]1Nc1nc(NCc2ccc(-c3ccccn3)cc2)ncc1C(F)(F)F` [Compound 70], for which the IC50 under setting [1] came out at 160 nM.
As to `C[C@@H](O)[C@@H](C)Nc1nc(NCc2ccc(-c3cc(CO)cc(CO)n3)cc2)ncc1C(F)(F)F` [Compound 194], the IC50 under setting [1] was found to be 278 nM.
For `NC(=O)[C@H](Nc1nc(NCc2ccc(-c3ccccn3)cc2)ncc1C(F)(F)F)C1CC1` [Compound 206], the IC50 under setting [1] stood at 65 nM.
With `FC(F)(F)c1cnc(NCc2ccc(-c3cnccn3)cc2)nc1OC1COC1` [Compound 21], the IC50 (Homo sapiens, HGC-27, 24 h) worked out at 155 nM.
With `C[C@@H](O)[C@@H](CO)Nc1nc(NCc2ccc(-c3ccccn3)cc2)ncc1C(F)(F)F` [Compound 126], the concentration for half-maximal inhibition (IC50) under setting [1] turned out to be 170 nM.
Still for that read-out and setting: under `CC(C)(C)[C@H](CO)Nc1nc(NCc2ccc(-c3ccccn3)cc2)ncc1C(F)(F)F` [Compound 85] stands 405 nM.
`O[C@@H]1CCC[C@H]1Nc1nc(NCc2ccc(-c3ccccn3)cc2)ncc1C(F)(F)F` [Compound 152]: the 50% inhibitory concentration (IC50) (HGC27 cells, 24 hours, CellTiter-Glo) came to 202 nM.
For the compound `CC[C@@H](Nc1nc(NCc2ccc(-c3cc(CO)cc(CO)n3)cc2)ncc1C(F)(F)F)C(N)=O` [Compound 169], the IC50 under setting [1] is 53 nM.
Consider `C[C@H](CO)Oc1nc(NCc2ccc(-c3ccccn3)cc2)ncc1C(F)(F)F` [Compound 165], for which the half-inhibitory concentration (IC50) under setting [1] turned out to be 89 nM.
Take `OC[C@H](Nc1nc(NCc2ccc(-c3ccccn3)cc2)ncc1C(F)(F)F)C1CC1` [Compound 159]: the IC50 under setting [1] was 45 nM.
For `C[C@@H](O)[C@H](Nc1nc(NCc2ccc(-c3ccccn3)cc2)ncc1C(F)(F)F)C(N)=O` [Compound 207], the IC50 (Homo sapiens, HGC-27, 24 h) was 103 nM.
As to `C[C@@H](Nc1ncc(C(F)(F)F)c(OC2COC2)n1)c1ccc(-c2cc(CO)cc(CO)n2)cc1` [Compound 181], under setting [1], the half-inhibitory concentration (IC50) came to 63 nM.
Still for that read-out and setting: under `CC[C@H](CO)Oc1nc(NCc2ccc(-c3ccccn3)cc2)ncc1C(F)(F)F` [Compound 149] stands 238 nM.
